# From patent publication US5840684A, “Glycopeptide antibiotic derivatives” (Eli Lilly and Company, priority 1995, dated 1998)
# Assays:
# [1] = tested on: Staphylococcus aureus S13E; format: cell-based
# Experimental: (§1) The MIC's were determined using a standard broth micro-dilution assay.
# [2] = tested on: Staphylococcus aureus SA1199B; format: cell-based
# Experimental: as §1
# [3] = tested on: Entercoccus faecium 180-1; experiment: broth micro-dilution MIC; format: cell-based
# Experimental: as §1
# Entercoccus faecium 276 = experiment: broth micro-dilution MIC; format: cell-based
# Experimental: as §1
# [4] = tested on: Staphylococcus aureus 446; experiment: broth micro-dilution MIC; format: cell-based
# Experimental: as §1
# [5] = tested on: Staphylococcus aureus 447; experiment: broth micro-dilution MIC; format: cell-based
# Experimental: as §1
# [6] = tested on: Staphylococcus aureus 489; experiment: broth micro-dilution MIC; format: cell-based
# Experimental: as §1
# [7] = tested on: Staphylococcus aureus 491; experiment: broth micro-dilution MIC; format: cell-based
# Experimental: as §1
# [8] = tested on: Staphylococcus aureus SA1199A; experiment: broth micro-dilution MIC; format: cell-based
# Experimental: as §1
# [9] = tested on: Staphylococcus aureus SA1199; experiment: broth micro-dilution MIC; format: cell-based
# Experimental: as §1
# [10] = tested on: Staphylococcus aureus X400; experiment: broth micro-dilution MIC; format: cell-based
# Experimental: as §1
# [11] = tested on: Streptococcus pyogenes C203; experiment: broth micro-dilution MIC; format: cell-based
# Experimental: as §1
# Entercoccus faecium 180 = experiment: broth micro-dilution MIC; format: cell-based; details: Entercoccus faecium 180
# Experimental: (§2) The formula I compounds have in vitro and in vivo activity against Gram-positive pathogenic bacteria. The MIC's were determined using a standard broth micro-dilution assay.
# [12] = tested on: Enterococcus gallinarum 245; experiment: broth micro-dilution MIC; format: cell-based; details: Enterococcus gallinarum 245
# Experimental: as §2
# [13] = tested on: Staphylococcus epidermidis 270; experiment: broth micro-dilution MIC; format: cell-based
# Experimental: as §2
# [14] = tested on: Staphylococcus haemolyticus 105; experiment: broth micro-dilution MIC; format: cell-based
# Experimental: as §2
# [15] = tested on: Streptococcus pneumoniae P1; experiment: broth micro-dilution MIC; format: cell-based
# Experimental: as §2
# [16] = tested on: vancomycin-resistant enterococci; experiment: broth micro-dilution, mean geometric MIC; format: cell-based, Enterococcus faecium and Enterococcus faecalis; details: enterococci, 24-hour incubation
# [17] = tested on: vancomycin-susceptible enterococci; experiment: broth micro-dilution, mean geometric MIC; format: cell-based, Enterococcus faecium and Enterococcus faecalis; details: enterococci, 24-hour incubation
# [18] = tested on: Staphylococcus aureus X778; experiment: broth micro-dilution MIC; format: cell-based
# Experimental: as §1
# [19] = tested on: Staphylococcus haemolyticus 415; experiment: broth micro-dilution MIC; format: cell-based
# Experimental: as §2
# Entercoccus faecium 2041 = experiment: broth micro-dilution MIC; format: cell-based; details: Entercoccus faecium 2041
# Experimental: as §2
Structure (SMILES),MIC [1],MIC [2],MIC [3],MIC (Entercoccus faecium 276),MIC [4],MIC [5],MIC [6],MIC [7],MIC [8],MIC [9],MIC [10],MIC [11],MIC (Entercoccus faecium 180),MIC [12],MIC [13],MIC [14],MIC [15],"mean geometric MIC, Vancomycin Resistant Strains [16]","mean geometric MIC, Vancomycin Sensitive Strains [17]",MIC [19],also measured
C=CCOc1ccc(CNC2(C)CC(OC3C(Oc4c5cc6cc4Oc4ccc(cc4Cl)C(OC4CC(C)(N)C(O)C(C)O4)C4NC(=O)C(NC(=O)C6NC(=O)C(CC(N)=O)NC(=O)C(NC(=O)C(CC(C)C)NC)C(O)c6ccc(c(Cl)c6)O5)c5ccc(O)c(c5)-c5c(O)cc(O)cc5C(C(=O)O)NC4=O)OC(CO)C(O)C3O)OC(C)C2O)cc1 (stereo not drawn) [Compound 7],2 µg/mL,1 µg/mL,≤ 0.06 µg/mL,1 µg/mL,8 µg/mL,4 µg/mL,2 µg/mL,2 µg/mL,≤ 0.06 µg/mL,4 µg/mL,1 µg/mL,≤ 0.06 µg/mL,2 µg/mL,0.5 µg/mL,4 µg/mL,8 µg/mL,≤ 0.06 µg/mL,2.8 µg/mL,0.43 µg/mL,–,–
CNC(CC(C)C)C(=O)NC1C(=O)NC(CC(N)=O)C(=O)NC2C(=O)NC3C(=O)NC(C(=O)NC(C(=O)O)c4cc(O)cc(O)c4-c4cc3ccc4O)C(OC3CC(C)(N)C(O)C(C)O3)c3ccc(c(Cl)c3)Oc3cc2cc(c3OC2OC(CO)C(O)C(O)C2OC2CC(C)(NCc3ccncc3)C(O)C(C)O2)Oc2ccc(cc2Cl)C1O (stereo not drawn) [Compound 26],–,0.5 µg/mL,–,≤ 0.06 µg/mL,–,2 µg/mL,≤ 0.06 µg/mL,0.5 µg/mL,≤ 0.06 µg/mL,1 µg/mL,–,≤ 0.06 µg/mL,4 µg/mL,0.125 µg/mL,1 µg/mL,4 µg/mL,≤ 0.06 µg/mL,54 µg/mL,–,8 µg/mL,MIC [18]: 0.125 µg/mL
CNC(CC(C)C)C(=O)NC1C(=O)NC(CC(N)=O)C(=O)NC2C(=O)NC3C(=O)NC(C(=O)NC(C(=O)O)c4cc(O)cc(O)c4-c4cc3ccc4O)C(OC3CC(C)(N)C(O)C(C)O3)c3ccc(c(Cl)c3)Oc3cc2cc(c3OC2OC(CO)C(O)C(O)C2OC2CC(C)(NCc3ccc(-c4ccccc4)s3)C(O)C(C)O2)Oc2ccc(cc2Cl)C1O (stereo not drawn) [Compound 67],–,1 µg/mL,≤ 0.06 µg/mL,≤ 0.06 µg/mL,–,1 µg/mL,≤ 0.06 µg/mL,1 µg/mL,≤ 0.06 µg/mL,1 µg/mL,1 µg/mL,–,–,2 µg/mL,0.5 µg/mL,–,≤ 0.06 µg/mL,1.7 µg/mL,0.16 µg/mL,2 µg/mL,MIC (Entercoccus faecium 2041): ≤ 0.06 µg/mL
CNC(CC(C)C)C(=O)NC1C(=O)NC(CC(N)=O)C(=O)NC2C(=O)NC3C(=O)NC(C(=O)NC(C(=O)O)c4cc(O)cc(O)c4-c4cc3ccc4O)C(OC3CC(C)(N)C(O)C(C)O3)c3ccc(c(Cl)c3)Oc3cc2cc(c3OC2OC(CO)C(O)C(O)C2OC2CC(C)(NCc3ccc(OC(=O)C4CCCCC4)cc3)C(O)C(C)O2)Oc2ccc(cc2Cl)C1O (stereo not drawn) [Compound 157],–,1 µg/mL,≤ 0.06 µg/mL,≤ 0.06 µg/mL,0.5 µg/mL,–,0.5 µg/mL,≤ 0.06 µg/mL,≤ 0.06 µg/mL,1 µg/mL,0.5 µg/mL,≤ 0.06 µg/mL,≤ 0.06 µg/mL,1 µg/mL,–,1 µg/mL,≤ 0.06 µg/mL,2.0 µg/mL,0.054 µg/mL,1 µg/mL,MIC (Entercoccus faecium 2041): ≤ 0.06 µg/mL
CNC(CC(C)C)C(=O)NC1C(=O)NC(CC(N)=O)C(=O)NC2C(=O)NC3C(=O)NC(C(=O)NC(C(=O)O)c4cc(O)cc(O)c4-c4cc3ccc4O)C(OC3CC(C)(N)C(O)C(C)O3)c3ccc(cc3)Oc3cc2cc(c3OC2OC(CO)C(O)C(O)C2OC2CC(C)(NCc3ccc(-c4ccccc4)cc3)C(O)C(C)O2)Oc2ccc(cc2Cl)C1O (stereo not drawn) [Compound 182],–,4 µg/mL,≤ 0.06 µg/mL,1 µg/mL,2 µg/mL,–,2 µg/mL,1 µg/mL,≤ 0.06 µg/mL,2 µg/mL,1 µg/mL,≤ 0.06 µg/mL,2 µg/mL,1 µg/mL,–,2 µg/mL,≤ 0.06 µg/mL,13 µg/mL,–,4 µg/mL,MIC [18]: 2 µg/mL; MIC (Entercoccus faecium 2041): 1 µg/mL
CNC(CC(C)C)C(=O)NC1C(=O)NC(CC(N)=O)C(=O)NC2C(=O)NC3C(=O)NC(C(=O)NC(C(=O)O)c4cc(O)cc(O)c4-c4cc3ccc4O)C(OC3CC(C)(N)C(O)C(C)O3)c3ccc(c(Cl)c3)Oc3cc2cc(c3OC2OC(CO)C(O)C(O)C2OC2CC(C)(NCc3ccc(-c4ccc(C(F)(F)F)cc4)cc3)C(O)C(C)O2)Oc2ccc(cc2Cl)C1O (stereo not drawn) [Compound 216],1 µg/mL,0.5 µg/mL,≤ 0.06 µg/mL,0.5 µg/mL,1 µg/mL,1 µg/mL,1 µg/mL,1 µg/mL,1 µg/mL,≤ 0.06 µg/mL,1 µg/mL,≤ 0.06 µg/mL,≤ 0.06 µg/mL,–,–,0.5 µg/mL,≤ 0.06 µg/mL,0.35 µg/mL,0.032 µg/mL,–,–
CNC(CC(C)C)C(=O)NC1C(=O)NC(CC(N)=O)C(=O)NC2C(=O)NC3C(=O)NC(C(=O)NC(C(=O)O)c4cc(O)cc(O)c4-c4cc3ccc4O)C(OC3CC(C)(N)C(O)C(C)O3)c3ccc(c(Cl)c3)Oc3cc2cc(c3OC2OC(CO)C(O)C(O)C2OC2CC(C)(NCc3ccc(-c4cccs4)cc3)C(O)C(C)O2)Oc2ccc(cc2Cl)C1O (stereo not drawn) [Compound 218],32 µg/mL,–,≤ 0.06 µg/mL,≤ 0.06 µg/mL,4 µg/mL,1 µg/mL,1 µg/mL,0.5 µg/mL,≤ 0.06 µg/mL,4 µg/mL,–,≤ 0.06 µg/mL,≤ 0.06 µg/mL,≤ 0.06 µg/mL,1 µg/mL,0.5 µg/mL,≤ 0.06 µg/mL,1.0 µg/mL,0.11 µg/mL,4 µg/mL,MIC [18]: 1 µg/mL
